Reference: patent publication US10137115B2, “Therapeutic inhibitor for EBV-associated tumor with tailor responsive optical imaging” (priority 2016, dated 2018)
“Also recorded” adds a separate entry of the source. Non-standard residues stand in square brackets, D forms with d. Residues, ends and D or L forms follow the SMILES beside them. No end group written: not given here. *: point of attachment. X1 = CCN(CC)c1ccc(/C=C/c2cc[n+](CC(=O)*)cc2)cc1; Ahx = NCCCCCC(=O)O

Legend:
[1] = Emission quantum yield in water, comparative method using rhodamine 6G; format: physicochemical; conditions: λex=480 nm, without WT-EBNA1
Description: Quantum yields of L2Pn are evaluated by the following equation 1: […]
Where the subscripts r and s denote reference and sample respectively, ϕ is the quantum yield, G is the slope from the plot integrated emission intensity vs absorbance, and η is the refractive index of the solvent. The correction curve is obtained by comparing the experimentally recorded spectrum of the standard rhodamine 6G with the published data.

[2] = tested on: EBV-positive (C666-1 and NPC43) and EBV-negative (CNE2 and HeLa) cell lines; test: In vitro confocal imaging and co-staining; format: cell-based, human; conditions: 10 μM, 6 h
Description: HeLa is EBV-negative human cervical carcinoma cells, CNE2 is EBV-negative nasopharyngeal carcinoma cells, C666-1 is EBV-positive nasopharyngeal carcinoma cells, and NPC 43 is the newly derived EBV-positive nasopharyngeal carcinoma cells.
The cells are incubated with 6 hours before monitoring imaging.

WT-EBNA1 [3] = target: T1, WT-EBNA1 (Epstein-Barr virus, UniProt P03211); test: Emission quantum yield in the presence of WT-EBNA1; conditions: in water, saturated WT-EBNA1, λex=480 nm
T1 sequence (P03211 379-641): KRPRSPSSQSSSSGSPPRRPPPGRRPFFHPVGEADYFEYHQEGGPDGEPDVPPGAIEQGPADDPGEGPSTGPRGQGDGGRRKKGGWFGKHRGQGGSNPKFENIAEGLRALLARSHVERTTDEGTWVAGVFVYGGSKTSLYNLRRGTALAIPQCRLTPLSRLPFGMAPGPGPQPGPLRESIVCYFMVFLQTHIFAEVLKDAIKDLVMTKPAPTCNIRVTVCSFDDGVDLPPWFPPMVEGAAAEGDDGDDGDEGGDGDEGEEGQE

WT-EBNA1 [4] = target: T1, WT-EBNA1; test: biochemical; format: binding; set-up: Wild type EBNA1 protein (379-641 a.a.) fusing with glutathione S-transferase is expressed in Escherichia coli; GST (glutathione S-transferase); made in house; host or cells: Escherichia coli (BL21); conditions: for emission intensity increase on addition of WT-EBNA1: 4 μM WT-EBNA1, PBS buffer
Description: Bind constant via luminescence titration: Luminescence titration analysis is conducted with gradually addition of WT EBNA1 to evaluate the binding constants between the three peptide conjugates and WT EBNA1. […] The binding constants for Ka are obtained from the double logarithm regression curve: lg[(I−I0)/I0]=lg Ka+n lg[G] equation 2
Where I and I0 are current and initial fluorescence, respectively, Ka is the binding constant, n is the number of binding sites per WT EBNA1, and [G] is total concentration of WT EBNA1.
Protein samples preparation. Five protein samples are used.

Compound | emission quantum yield [1] | subcellular localization in EBV-positive cells [2] | emission quantum yield + WT EBNA1 (WT-EBNA1 [3]) | Kd (WT-EBNA1 [4]) | selectivity towards WT-EBNA1 (emission enhancement vs other proteins, ions) (WT-EBNA1 [4]; 2 μM in PBS buffer, vs BSA, mutant EBNA1, ZnCl2, NaHCO3, CuCl2, citrates) | emission intensity increase on addition of WT-EBNA1 (WT-EBNA1 [4])
CCN(CC)c1ccc(/C=C/c2cc[n+](CC(=O)N[C@@H](CS)C(=O)NCCCCCC(=O)N[C@@H](CCCNC(=N)N)C(=O)N[C@H](CCCNC(=N)N)C(=O)N[C@@H](CCCNC(=N)N)C(=O)N[C@@H](CCCCN)C(=O)NCC(=O)NCC(=O)N[C@@H](Cc3ccc(O)cc3)C(=O)N[C@@H](Cc3ccccc3)C(=O)N[C@@H](CCSC)C(=O)N[C@H](C(=O)N[C@@H](Cc3ccccc3)C(N)=O)C(C)C)cc2)cc1 [L2P3] (X1-C[Ahx]R[dR]RKGGYFMVF-NH2) | 4.3% | can goes into C666-1 cell nucleus; also recorded: nuclear localization | 13.0% | 3.16 µM | selective towards WT-EBNA1 | 4.7 fold
L2P2: peptide conjugate of L2 (4-(4-(Diethylamino)styryl)-N-carboxymethylpyridinium chloride) and peptide P2 YFMVF (also: conjugated to L2, site not given here) | 4.4% | cytoplasm location only; also recorded: only found in the cytoplasm | 3.8% |  |  | no intensity change; also recorded: did not show any enhancements
